Data reported in ChEMBL document CHEMBL5634084, “Design and optimization of selective and potent CDK9 inhibitors with flavonoid scaffold for the treatment of acute myeloid leukemia” (Eur J Med Chem, 2023).
Converted amounts (≈) assume the structure as drawn. The source made the active and inactive calls. The calls are words filed in the database; no cut-off is given here.

How the values were obtained:
[1] = Cytotoxicity against human L02 cells assessed as reduction in cell viability measured after 72 hrs; assay type: toxicity, cell-based
[2] = system: MV4-11; experiment: Induction of apoptosis in human MV4-11 cells assessed as early apoptotic cells at 1 uM incubated for 24 hrs by AnnexinV-FITC/PI staining based flow cytometry (reference value: 1.42%); assay type: functional
[3] = target: Cyclin-dependent kinase 4/cyclin D1 (Homo sapiens) (UniProt P11802+P24385); experiment: Inhibition of wild type full length human CDK4 (1 to 303 residues)/CyclinD1 expressed in mammalian expression system at 1 uM by KINOMEscan analysis
[4] = system: SW480; experiment: Antiproliferative activity against human SW480 cells assessed as reduction in cell viability measured after 72 hrs; assay type: functional, cell-based; settings: SW480, 72 h
[5] = system: MV4-11; experiment: Induction of apoptosis in human MV4-11 cells assessed as increase in cleaved caspase 3 protein expression incubated for 24 hrs by western blot analysis; assay type: functional, cell-based; settings: dose 0.1-4 µM
[6] = system: MV4-11; experiment: Induction of apoptosis in human MV4-11 cells assessed as necrotic cells at 1 uM incubated for 24 hrs by AnnexinV-FITC/PI staining based flow cytometry (reference value: 0%); assay type: functional
[7] = system: HL-60; experiment: Antiproliferative activity against human HL-60 cells assessed as reduction in cell viability measured after 72 hrs; assay type: functional, cell-based; settings: HL-60, 72 h
[8] = system: MV4-11; experiment: Induction of apoptosis in human MV4-11 cells assessed as late apoptotic cells at 0.1 uM incubated for 24 hrs by AnnexinV-FITC/PI staining based flow cytometry (reference value: 5.21%); assay type: functional
[9] = system: HepG2; experiment: Antiproliferative activity against human HepG2 cells assessed as reduction in cell viability measured after 72 hrs; assay type: functional, cell-based; settings: HepG2, 72 h
[10] = system: THP-1; experiment: Antiproliferative activity against human THP-1 cells assessed as reduction in cell viability measured after 72 hrs; assay type: functional, cell-based; settings: THP-1, 72 h
[11] = target: Mitogen-activated protein kinase kinase kinase kinase 2 (Homo sapiens) (UniProt Q12851); experiment: Inhibition of wild type partial length human MAP4K2 (1 to 318 residues) expressed in mammalian expression system at 1 uM by KINOMEscan analysis
Chain of Mitogen-activated protein kinase kinase kinase kinase 2 (Homo sapiens) (Q12851 whole entry, the tested form may be a part): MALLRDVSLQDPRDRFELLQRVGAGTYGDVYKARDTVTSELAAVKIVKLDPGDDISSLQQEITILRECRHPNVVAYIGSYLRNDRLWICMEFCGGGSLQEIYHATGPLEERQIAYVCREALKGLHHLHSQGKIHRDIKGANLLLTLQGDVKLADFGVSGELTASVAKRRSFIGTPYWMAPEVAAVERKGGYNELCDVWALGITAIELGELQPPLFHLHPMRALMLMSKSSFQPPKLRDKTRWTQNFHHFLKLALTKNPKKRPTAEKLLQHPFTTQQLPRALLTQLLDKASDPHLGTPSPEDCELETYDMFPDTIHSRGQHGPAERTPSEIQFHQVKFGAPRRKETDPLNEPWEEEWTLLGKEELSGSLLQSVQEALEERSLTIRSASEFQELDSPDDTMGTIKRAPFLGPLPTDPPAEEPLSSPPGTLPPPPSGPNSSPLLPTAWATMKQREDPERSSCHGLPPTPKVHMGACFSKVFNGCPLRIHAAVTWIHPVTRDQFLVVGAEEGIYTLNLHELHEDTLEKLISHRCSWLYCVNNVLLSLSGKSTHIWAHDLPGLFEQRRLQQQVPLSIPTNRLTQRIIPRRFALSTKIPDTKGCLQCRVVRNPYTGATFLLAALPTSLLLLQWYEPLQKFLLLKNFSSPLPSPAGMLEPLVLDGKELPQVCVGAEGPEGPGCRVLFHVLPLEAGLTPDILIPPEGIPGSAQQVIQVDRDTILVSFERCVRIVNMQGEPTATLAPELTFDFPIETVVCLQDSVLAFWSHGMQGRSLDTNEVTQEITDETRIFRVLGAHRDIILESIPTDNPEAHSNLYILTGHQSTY

[12] = target: Cyclin-dependent kinase 9 (Homo sapiens) (UniProt P50750); experiment: Inhibition of CDK9 in human MV4-11 cells assessed as reduction in Mcl-1 mRNA expression at 0.1 to 2 uM incubated for 12 hrs by qPCR analysis; assay type: cell-based; settings: dose 0.1-2 µM
Chain of Cyclin-dependent kinase 9 (Homo sapiens) (P50750 whole entry, the tested form may be a part): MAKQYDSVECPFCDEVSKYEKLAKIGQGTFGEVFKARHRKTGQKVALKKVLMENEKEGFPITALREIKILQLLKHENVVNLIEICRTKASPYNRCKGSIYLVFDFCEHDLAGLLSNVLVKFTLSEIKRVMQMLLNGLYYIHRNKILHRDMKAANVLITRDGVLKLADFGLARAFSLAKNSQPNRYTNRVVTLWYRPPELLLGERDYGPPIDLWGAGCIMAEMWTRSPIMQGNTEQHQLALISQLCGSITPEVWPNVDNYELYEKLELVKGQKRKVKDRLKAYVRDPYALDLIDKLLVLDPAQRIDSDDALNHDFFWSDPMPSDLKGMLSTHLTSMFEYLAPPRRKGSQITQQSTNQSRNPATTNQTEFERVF

[13] = system: MV4-11; experiment: Induction of cell cycle arrest in human MV4-11 cells assessed as accumulation of cells at G2/M phase at 0.8 uM incubated fo 36 hrs by propidium iodide staining based flow cytometry (reference value: 9.5%); assay type: functional
[14] = system: MCF7; experiment: Antiproliferative activity against human MCF7 cells assessed as reduction in cell viability measured after 72 hrs; assay type: functional, cell-based; settings: MCF7, 72 h
[15] = system: MV4-11; experiment: Induction of cell cycle arrest in human MV4-11 cells assessed as accumulation of cells at G0/G1 phase at 0.8 uM incubated fo 36 hrs by propidium iodide staining based flow cytometry (reference value: 64%); assay type: functional
[16] = target: MAP kinase-interacting serine/threonine-protein kinase 2 (Homo sapiens) (UniProt Q9HBH9); experiment: Inhibition of wild type partial length human MKNK2 (63 to 388 residues) expressed in mammalian expression system at 1 uM by KINOMEscan analysis
[17] = system: MV4-11; experiment: Induction of cell cycle arrest in human MV4-11 cells assessed as accumulation of cells at S phase at 0.8 uM incubated fo 36 hrs by propidium iodide staining based flow cytometry (reference value: 26.5%); assay type: functional
[18] = Inhibition of CDK1/CyclinA2 (unknown origin) by ADP-Glo assay; parameters: species or system Homo sapiens
[19] = Solubility of the compound in water at pH 7.4; assay type: physicochemical
[20] = Metabolic stability of the compound in rat plasma at 10 uM measured for 60 mins by LC-MS/MS analysis; assay type: ADME, cell-free; settings: 1 h
[21] = system: MV4-11; experiment: Induction of apoptosis in human MV4-11 cells assessed as viable cells at 1 uM incubated for 24 hrs by AnnexinV-FITC/PI staining based flow cytometry (reference value: 93.4%); assay type: functional; settings: read-out: Activity
[22] = target: Cyclin-dependent kinase 9 (Homo sapiens) (UniProt P50750); experiment: Inhibition of CDK9 in human MV4-11 cells assessed as reduction in Mcl-1 protein expression incubated for 12 hrs by western blot analysis; assay type: cell-based; settings: dose 0.1-4 µM
[23] = target: Rho-associated protein kinase 2 (Homo sapiens) (UniProt O75116); experiment: Inhibition of wild type partial length human ROCK2 (1 to 431 residues) expressed in mammalian expression system at 1 uM by KINOMEscan analysis
Chain of Rho-associated protein kinase 2 (Homo sapiens) (O75116 whole entry, looked up, the tested form may be a part): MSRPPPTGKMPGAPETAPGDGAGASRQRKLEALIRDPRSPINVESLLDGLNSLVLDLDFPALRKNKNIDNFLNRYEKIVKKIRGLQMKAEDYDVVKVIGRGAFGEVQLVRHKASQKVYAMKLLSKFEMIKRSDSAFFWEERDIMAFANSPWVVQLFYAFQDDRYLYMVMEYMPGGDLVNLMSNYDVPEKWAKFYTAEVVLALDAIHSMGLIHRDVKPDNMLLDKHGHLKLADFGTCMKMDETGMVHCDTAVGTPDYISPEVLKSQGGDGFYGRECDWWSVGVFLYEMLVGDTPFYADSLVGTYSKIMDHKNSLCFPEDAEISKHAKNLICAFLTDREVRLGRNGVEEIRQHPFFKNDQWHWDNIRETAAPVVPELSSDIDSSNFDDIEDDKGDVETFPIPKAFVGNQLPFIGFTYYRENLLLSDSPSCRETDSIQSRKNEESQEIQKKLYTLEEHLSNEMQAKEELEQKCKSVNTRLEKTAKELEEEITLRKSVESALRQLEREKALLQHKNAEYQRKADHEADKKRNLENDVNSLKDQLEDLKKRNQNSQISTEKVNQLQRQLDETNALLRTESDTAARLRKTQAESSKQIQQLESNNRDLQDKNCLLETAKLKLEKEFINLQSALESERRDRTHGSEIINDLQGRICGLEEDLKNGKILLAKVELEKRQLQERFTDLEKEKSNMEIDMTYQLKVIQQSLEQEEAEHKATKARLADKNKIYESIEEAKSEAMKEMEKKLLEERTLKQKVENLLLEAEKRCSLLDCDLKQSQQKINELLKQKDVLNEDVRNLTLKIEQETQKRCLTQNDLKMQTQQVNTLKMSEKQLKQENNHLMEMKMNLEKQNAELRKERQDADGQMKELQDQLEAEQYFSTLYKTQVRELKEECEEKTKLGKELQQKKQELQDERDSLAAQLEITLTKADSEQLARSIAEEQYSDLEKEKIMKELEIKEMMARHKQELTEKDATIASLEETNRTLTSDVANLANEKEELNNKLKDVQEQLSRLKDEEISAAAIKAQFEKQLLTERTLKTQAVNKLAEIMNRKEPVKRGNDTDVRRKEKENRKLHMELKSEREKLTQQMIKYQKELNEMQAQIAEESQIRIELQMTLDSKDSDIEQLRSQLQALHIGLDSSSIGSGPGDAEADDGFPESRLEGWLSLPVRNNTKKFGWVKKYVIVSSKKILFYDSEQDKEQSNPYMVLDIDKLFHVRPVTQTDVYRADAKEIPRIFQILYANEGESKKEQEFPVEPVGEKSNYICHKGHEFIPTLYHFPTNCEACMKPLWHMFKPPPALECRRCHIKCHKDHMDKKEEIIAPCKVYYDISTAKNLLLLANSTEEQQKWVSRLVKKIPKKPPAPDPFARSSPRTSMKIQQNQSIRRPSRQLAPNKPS

[24] = target: Cyclin-dependent kinase 9 (Homo sapiens) (UniProt P50750); experiment: Inhibition of CDK9 in human MV4-11 cells assessed as reduction in c-Myc protein expression incubated for 12 hrs by western blot analysis; assay type: cell-based; settings: dose 0.1-4 µM
[25] = system: MV4-11; experiment: Induction of cell cycle arrest in human MV4-11 cells assessed as accumulation of cells at S phase at 0.1 uM incubated fo 36 hrs by propidium iodide staining based flow cytometry (reference value: 26.5%); assay type: functional
[26] = system: MV4-11; experiment: Induction of cell cycle arrest in human MV4-11 cells assessed as accumulation of cells at G2/M phase at 0.2 uM incubated fo 36 hrs by propidium iodide staining based flow cytometry (reference value: 9.5%); assay type: functional
[27] = target: CDK7/Cyclin H/MNAT1 (Homo sapiens, UniProt P50613); experiment: Inhibition of CDK7/Cyclin H/MAT1 (unknown origin) by ADP-Glo assay; assay type: protein-complex assay
Chain of CDK7/Cyclin H/MNAT1 (P51946 whole entry): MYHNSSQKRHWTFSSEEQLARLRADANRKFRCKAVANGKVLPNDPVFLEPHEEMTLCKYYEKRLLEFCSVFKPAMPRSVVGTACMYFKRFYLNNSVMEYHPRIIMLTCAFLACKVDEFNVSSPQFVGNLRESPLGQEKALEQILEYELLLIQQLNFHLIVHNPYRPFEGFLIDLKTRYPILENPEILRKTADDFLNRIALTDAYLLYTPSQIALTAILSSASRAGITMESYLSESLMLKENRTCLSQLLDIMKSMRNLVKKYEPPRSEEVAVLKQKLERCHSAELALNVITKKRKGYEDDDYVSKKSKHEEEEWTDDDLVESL
Chain of CDK7/Cyclin H/MNAT1 (P50613 whole entry): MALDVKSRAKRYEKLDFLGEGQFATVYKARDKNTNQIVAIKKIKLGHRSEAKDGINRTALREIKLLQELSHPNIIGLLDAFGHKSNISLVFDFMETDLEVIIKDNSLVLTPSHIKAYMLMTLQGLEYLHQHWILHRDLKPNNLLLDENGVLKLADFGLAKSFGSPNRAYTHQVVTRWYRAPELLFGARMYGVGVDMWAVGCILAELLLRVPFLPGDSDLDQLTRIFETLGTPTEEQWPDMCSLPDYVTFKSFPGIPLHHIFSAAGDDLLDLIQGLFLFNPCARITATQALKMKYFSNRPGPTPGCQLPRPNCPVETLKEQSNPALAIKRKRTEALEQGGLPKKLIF
Chain of CDK7/Cyclin H/MNAT1 (P51948 whole entry, further chain): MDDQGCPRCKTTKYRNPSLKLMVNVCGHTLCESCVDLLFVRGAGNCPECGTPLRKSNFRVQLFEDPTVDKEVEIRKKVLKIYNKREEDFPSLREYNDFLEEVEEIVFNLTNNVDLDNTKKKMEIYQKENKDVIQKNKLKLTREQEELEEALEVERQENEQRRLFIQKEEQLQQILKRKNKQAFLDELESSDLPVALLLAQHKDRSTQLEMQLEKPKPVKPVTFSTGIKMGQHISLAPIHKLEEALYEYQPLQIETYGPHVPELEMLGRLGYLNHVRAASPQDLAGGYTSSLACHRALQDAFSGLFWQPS

[28] = system: MV4-11; experiment: Induction of apoptosis in human MV4-11 cells assessed as early apoptotic cells at 0.5 uM incubated for 24 hrs by AnnexinV-FITC/PI staining based flow cytometry (reference value: 1.42%); assay type: functional
[29] = target: Cyclin-dependent kinase 12 (Homo sapiens) (UniProt Q9NYV4); experiment: Inhibition of wild type partial length human CDK12 (697 to 1077 residues) to expressed in mammalian expression system at 1 uM by KINOMEscan analysis
Chain of Cyclin-dependent kinase 12 (Homo sapiens) (Q9NYV4 whole entry, looked up, the tested form may be a part): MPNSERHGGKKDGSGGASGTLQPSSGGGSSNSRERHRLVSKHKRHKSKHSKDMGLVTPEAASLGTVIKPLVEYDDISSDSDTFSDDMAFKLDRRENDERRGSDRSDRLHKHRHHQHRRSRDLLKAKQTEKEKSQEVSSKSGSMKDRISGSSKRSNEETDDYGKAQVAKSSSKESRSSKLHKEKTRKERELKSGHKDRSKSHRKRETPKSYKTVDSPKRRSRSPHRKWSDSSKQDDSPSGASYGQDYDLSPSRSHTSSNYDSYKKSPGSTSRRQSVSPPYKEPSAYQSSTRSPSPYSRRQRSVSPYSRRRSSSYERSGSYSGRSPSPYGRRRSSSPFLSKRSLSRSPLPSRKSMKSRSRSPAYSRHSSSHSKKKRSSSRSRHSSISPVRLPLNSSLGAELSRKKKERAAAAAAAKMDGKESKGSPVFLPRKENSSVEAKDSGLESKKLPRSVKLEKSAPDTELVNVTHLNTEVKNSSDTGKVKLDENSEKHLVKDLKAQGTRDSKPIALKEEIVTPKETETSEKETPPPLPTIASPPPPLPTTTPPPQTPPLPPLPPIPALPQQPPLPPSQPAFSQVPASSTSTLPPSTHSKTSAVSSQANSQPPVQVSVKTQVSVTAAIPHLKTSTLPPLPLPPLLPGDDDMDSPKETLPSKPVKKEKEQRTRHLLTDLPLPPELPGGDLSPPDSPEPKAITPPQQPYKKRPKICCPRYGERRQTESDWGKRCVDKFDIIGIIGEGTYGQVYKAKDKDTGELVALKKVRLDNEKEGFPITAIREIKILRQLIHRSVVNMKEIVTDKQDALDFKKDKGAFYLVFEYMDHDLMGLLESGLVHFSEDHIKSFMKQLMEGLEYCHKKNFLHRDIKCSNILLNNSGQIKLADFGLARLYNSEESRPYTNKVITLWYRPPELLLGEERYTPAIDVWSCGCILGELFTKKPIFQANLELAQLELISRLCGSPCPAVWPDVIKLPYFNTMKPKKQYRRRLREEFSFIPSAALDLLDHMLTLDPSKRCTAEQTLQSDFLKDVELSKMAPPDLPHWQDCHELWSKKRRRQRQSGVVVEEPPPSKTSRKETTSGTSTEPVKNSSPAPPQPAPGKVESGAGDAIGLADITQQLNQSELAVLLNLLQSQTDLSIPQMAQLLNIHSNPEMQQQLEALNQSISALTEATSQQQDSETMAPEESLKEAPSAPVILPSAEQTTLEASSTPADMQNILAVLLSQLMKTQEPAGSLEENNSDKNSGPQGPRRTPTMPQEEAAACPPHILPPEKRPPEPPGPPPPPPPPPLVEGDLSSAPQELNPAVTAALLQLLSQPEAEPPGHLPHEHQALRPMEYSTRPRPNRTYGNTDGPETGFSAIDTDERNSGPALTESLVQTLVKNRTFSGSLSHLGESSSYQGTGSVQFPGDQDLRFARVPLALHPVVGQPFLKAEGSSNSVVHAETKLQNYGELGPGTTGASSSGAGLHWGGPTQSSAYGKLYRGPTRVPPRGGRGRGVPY

[30] = target: CDK6/cyclin D1 (Homo sapiens, UniProt Q00534); experiment: Inhibition of CDK6/CyclinD1 (unknown origin) by ADP-Glo assay; assay type: protein-complex assay
[31] = system: MV4-11; experiment: Induction of apoptosis in human MV4-11 cells assessed as late apoptotic cells at 1 uM incubated for 24 hrs by AnnexinV-FITC/PI staining based flow cytometry (reference value: 5.21%); assay type: functional
[32] = system: MV4-11; experiment: Downregulation of cyclin T1 protein expression in human MV4-11 cells incubated for 12 hrs by western blot analysis; assay type: functional, cell-based; settings: dose 0.1-4 µM
[33] = system: MV4-11; experiment: Induction of apoptosis in human MV4-11 cells assessed as early apoptotic cells at 2 uM incubated for 24 hrs by AnnexinV-FITC/PI staining based flow cytometry (reference value: 1.42%); assay type: functional
[34] = Toxicity in BALB/c mouse xenografted with human MV4-11 cells assessed as effect on body weight at 7.5 to 15 mg/kg, iv qd; assay type: organism-based; settings: in vivo, dose 7.5-15 mg/kg
[35] = system: MV4-11; experiment: Induction of cell cycle arrest in human MV4-11 cells assessed as accumulation of cells at G2/M phase at 0.4 uM incubated fo 36 hrs by propidium iodide staining based flow cytometry (reference value: 9.5%); assay type: functional
[36] = system: MV4-11; experiment: Induction of apoptosis in human MV4-11 cells assessed as viable cells at 4 uM incubated for 24 hrs by AnnexinV-FITC/PI staining based flow cytometry (reference value: 93.4%); assay type: functional; settings: read-out: Activity

## COc1cc(O)c2c(=O)cc(-c3ccc(N4CCN(C)CC4)cc3)oc2c1C1=CCN(C)CC1
[1]
  IC50 at 72 h: 10600 nM
[2]
  Activity: 9.95%
[3]
  inhibition: 5.3%
[4]
  IC50: 3450 nM
[5]
  Activity: Dose-Dependent Effect
[6]
  Activity: 0.01%
[7]
  IC50: 180 nM
[8]
  Activity: 6.98%
[9]
  IC50: 410 nM
[10]
  IC50: 450 nM
[11]
  inhibition: 9.9%
[12]
  inhibition: Active
[13]
  Activity: 5%
[14]
  IC50: 140 nM
[15]
  Activity: 84.2%
[16]
  inhibition: 1.6%
[17]
  Activity: 10.8%
[18]
  IC50: 4180 nM
[19]
  solubility: 120 µg/mL (≈ 260 µM)
[20]
  Stability: Stable
[21]
  viability at 1 µM: 69.1%
[22]
  inhibition: Dose-Dependent Effect
[23]
  inhibition: 6%
[24]
  inhibition: Dose-Dependent Effect
[25]
  Activity: 21%
[26]
  Activity: 7.1%
[27]
  IC50: 536 nM
[28]
  Activity: 1.96%
[29]
  inhibition: 0%
[30]
  IC50: 589 nM
[31]
  Activity: 20.9%
[32]
  inhibition: Dose-Dependent Effect
[33]
  Activity: 67%
[34]
  Activity: Non-Toxic
[35]
  Activity: 6%
[36]
  viability at 4 µM: 7.98%
